The text below walks through data of US20030069220A1, “METHOD FOR MASS MEDICATION IN BIOLOGICAL ATTACKS” (priority 2001, published 2003).

For series [1] the following is noted: ampicillin dissolved with 95 mole-% sodium carbonate; or aqueous solution of pre-formed salt; cited from earlier work.
A short description of series [2]: Dissolution of antibiotic powders (cephalosporin plus citric acid) in water, Example 1. In kind it is physicochemical. How it is done:
The following antibiotic powders were formed without sweeteners and flavorings by addition to clear plastic bags and by working of the bags. The mixtures were added to water in the amounts noted and the conditions of dissolution are noted, as well as the resultant pH or the formed solution. Although Example 1 describes the use of citric acid, various other constituents may be utilized as a […] (e.g., various amino acids).

For series [3] the following is noted: in vivo; cited from earlier work.

Each structure is given as a SMILES string.

As for `CC1(C)S[C@@H]2[C@H](NC(=O)[C@H](N)c3ccccc3)C(=O)N2[C@H]1C(=O)O` [ampicillin], the “pH of aqueous solution” value in series [1] is recorded as 8.3.

With `CC1(C)S[C@@H]2[C@H](NC(=O)[C@H](N)c3ccccc3)C(=O)N2[C@H]1C(=O)[O-].[Na+]` [sodium ampicillin], the “pH of aqueous solution” value in series [1] is recorded as about 9.5.

Regarding `CC1=C(C(=O)O)N2C(=O)[C@@H](NC(=O)[C@H](N)c3ccccc3)[C@H]2SC1` [Cephalexin, αaminobenzyl-3-desacetoxycephalosporin], in series [2], the “pH of the formed solution” value is listed as “pH of 3.3” and the “time to form a solution” value was “solution in 5 minutes”. Further, the “absorbed by the body when ingested” value in series [3] was 90%.
